The values that follow come from patent publication US20230356105A1, “TETRAAZADODECANE BASED CHELATING AGENTS FOR SEPARATION OF RARE EARTH ELEMENTS AND METHOD THEREFOR” (Ustav Organicke Chemie a Biochemie AV CR V.V.I., priority 2020, published 2023).

Molecules are shown by their SMILES.

Holding throughout (assay type): physicochemical
Data set [1] in a line: Separation of industrially relevant binary mixtures by precipitation using L1, L2 and L3 (Example 10). As to conditions: supernatant. The method, then:
Analogous to Example 7), three sets of reaction mixtures with two metals and either compound L1, L2, or L3 were prepared in a 96-well plate with the following differences: each well was equipped with one PTFE-coated magnetic stir bar, the well plate was sealed with a silicon cover, and the reaction mixtures were stirred on a magnetic stirrer for 2 days at room temperature. Analogous to Example 7), the well plate was then centrifuged and concentrations of the metals were determined using ICP-OES. […] It is evident from the results that certain degrees of enrichment are achieved for very different combinations of metals, and that ligands L1, L2, and L3 have different selectivities for given combinations of metals.

Data set [2] is described as follows: Use of additives to improve separation of Nd/Dy mixture by precipitation with L5 (Example 18). The following applies: 11 mM L5. The method, then: Stock solutions were pipetted into plastic 1×1 cm cuvettes to prepare reaction mixtures with concentrations as follows: • 1. […] 5 mM NdCl3 • 3. 5 mM DyCl3 • 4. 500 mM MOPS pH=7 • 5. the additive of interest, in a variable concentration; if possible, stock solutions were prepared from Na^+ salt forms of the compound; if not, the stock solutions were titrated by NaOH/HCl to pH=7 prior to addition (see Table 12 for additives and concentrations)
These aqueous reaction mixtures, each prepared to a total volume of 2.0 mL with the addition of water as necessary, were mixed by the use of a PTFE-coated stir bar on a magnetic stirrer. The cuvettes were sealed with transparent tape to prevent evaporation overnight. The reaction mixtures were stirred for 18 hours, at which point 500 μL aliquots of each reaction mixture were transferred into plastic 2 mL Eppendorf tubes and centrifuged. The supernatants were carefully pipetted out and transferred to a new set of tubes. The precipitate was dissolved by addition of 500 μL 1M HCl. The absolute concentration of Nd and Dy in each supernatant and precipitate was determined by ICP-OES.

The nature of data set [3]: Separation of binary mixture of rare-earth metals by precipitation using L6 (Example 9). The following applies: supernatant; for [mM] M1: with Nd.

As for `O=C(O)CN1CCNCCN(CC(=O)O)CCN(Cc2ccc(C(=O)O)cc2)CC1` [L3, 2,2′-(4-(4-carboxybenzyl)-1,4,7,10-tetraazacyklododekane-1,7-diyl)Diacetic Acid], the “[mM] M1” value in data set [1] (M1/M2=Eu/Y) was 0.016 mM; in data set [1] (M1/M2=La/Ce) it was 0.111 mM; in data set [1] (M1/M2=Nd/Ce), 0.000 mM; in data set [1] (M1/M2=Nd/Dy) it was 0.000 mM; in data set [1] (M1/M2=Nd/La), 0.000 mM; in data set [1] (M1/M2=Nd/Pr) it was 0.000 mM. The “[mM] M1” value in data set [1] (M1/M2=Nd/Tb) is 0.008 mM; in data set [1] (M1/M2=Pr/Ce) it was 0.060 mM; in data set [1] (M1/M2=Pr/Dy) it was 0.018 mM; in data set [1] (M1/M2=Pr/La) it was 0.014 mM; in data set [1] (M1/M2=Tb/Dy), 0.010 mM; in data set [1] (M1/M2=Tb/Eu) it was 0.018 mM. For the same compound, the entries for the “[mM] M1” value in data set [1] (M1/M2=Tb/Pr) and in data set [1] (M1/M2=Tb/Y) were 0.015 mM and 0.018 mM, respectively. For the same compound, the “[mM] M2” value in data set [1] (M1/M2=Eu/Y) stood at 0.076 mM; in data set [1] (M1/M2=La/Ce), 0.036 mM; in data set [1] (M1/M2=Nd/Ce), 0.745 mM; in data set [1] (M1/M2=Nd/Dy), 0.025 mM; in data set [1] (M1/M2=Nd/La), 0.102 mM; in data set [1] (M1/M2=Nd/Pr) it was 0.016 mM. For the same compound, the “[mM] M2” value in data set [1] (M1/M2=Nd/Tb) was determined as 0.008 mM; in data set [1] (M1/M2=Pr/Ce), 0.021 mM; in data set [1] (M1/M2=Pr/Dy) it was 0.034 mM; in data set [1] (M1/M2=Pr/La) it was 0.098 mM; in data set [1] (M1/M2=Tb/Dy), 0.027 mM; in data set [1] (M1/M2=Tb/Eu), 0.017 mM. Also, the “[mM] M2” value in data set [1] (M1/M2=Tb/Pr) is listed as 0.018 mM; in data set [1] (M1/M2=Tb/Y), 0.078 mM.

As for `Cl` [chloride], in data set [2] (additive 100 mM), the “Precipitate concentration [mM] Dy” value stood at 4.58 mM, the “Precipitate concentration [mM] Nd” value is recorded as 4.62 mM, the “Supernatant concentration [mM] Dy” value is 0.29 mM and the “Supernatant concentration [mM] Nd” value was found to be 0.24 mM. Also, in data set [2] (additive 200 mM), the “Precipitate concentration [mM] Dy” value is 4.48 mM, the “Precipitate concentration [mM] Nd” value worked out at 4.57 mM, the “Supernatant concentration [mM] Dy” value worked out at 0.22 mM and the “Supernatant concentration [mM] Nd” value is on record as 0.12 mM. In data set [2] (additive 500 mM), the “Precipitate concentration [mM] Dy” value worked out at 4.29 mM, the “Precipitate concentration [mM] Nd” value is listed as 4.39 mM, the “Supernatant concentration [mM] Dy” value was 0.24 mM and the “Supernatant concentration [mM] Nd” value is listed as 0.11 mM. Also, in data set [2] (additive 1000 mM), the “Precipitate concentration [mM] Dy” value was determined as 4.88 mM, the “Precipitate concentration [mM] Nd” value came to 4.97 mM, the “Supernatant concentration [mM] Dy” value was determined as 0.24 mM and the “Supernatant concentration [mM] Nd” value is listed as 0.11 mM.

For the compound `F` [fluoride], in data set [2] (additive 5 mM), the “Precipitate concentration [mM] Dy” value was found to be 4.87 mM, the “Precipitate concentration [mM] Nd” value was 6.21 mM, the “Supernatant concentration [mM] Dy” value is listed as 1.21 mM and the “Supernatant concentration [mM] Nd” value was 0.13 mM. Besides, in data set [2] (additive 10 mM), the “Precipitate concentration [mM] Dy” value is recorded as 3.82 mM, the “Precipitate concentration [mM] Nd” value is 6.15 mM, the “Supernatant concentration [mM] Dy” value was 2.34 mM and the “Supernatant concentration [mM] Nd” value amounted to 0.18 mM. In data set [2] (additive 15 mM), the “Precipitate concentration [mM] Dy” value came out at 2.72 mM, the “Precipitate concentration [mM] Nd” value amounted to 5.68 mM, the “Supernatant concentration [mM] Dy” value came out at 3.26 mM and the “Supernatant concentration [mM] Nd” value was determined as 0.49 mM.

Regarding `O=C(O)CN1CCN(CC(=O)O)CCN(Cc2ccc(-c3ccccc3)cc2)CCN(CC(=O)O)CC1` [L6, 2,2′,2″-(10-([1,1′-biphenyl]-4-ylmethyl)-1,4,7,10-tetraazacyclododecane-1,4,7-triyl)triacetic acid], the “[mM] M1” value in data set [3] (M1=Ce) is reported as 0.596 mM; in data set [3] (M1=Dy) it was 0.459 mM; in data set [3] (M1=Er), 2.027 mM; in data set [3] (M1=Eu), 0.711 mM; in data set [3] (M1=Gd) it was 0.195 mM; in data set [3] (M1=Ho) it was 1.943 mM. For the same compound, the “[mM] M1” value in data set [3] (M1=La) is listed as 0.620 mM; in data set [3] (M1=Lu) it was 3.231 mM; in data set [3] (M1=Nd) it was 0.496 mM; in data set [3] (M1=Pr), 0.524 mM; in data set [3] (M1=Sc) it was 2.414 mM; in data set [3] (M1=Sm), 0.541 mM. Moreover, the “[mM] M1” value in data set [3] (M1=Tb) is on record as 0.428 mM; in data set [3] (M1=Tm), 2.914 mM; in data set [3] (M1=Y), 1.592 mM; in data set [3] (M1=Yb) it was 2.243 mM. The “[mM] Nd” value is reported as 0.556 mM in data set [3] (M1=Ce); 0.135 mM in data set [3] (M1=Dy); 0.702 mM in data set [3] (M1=Er); 0.566 mM in data set [3] (M1=Eu); 0.166 mM in data set [3] (M1=Gd); 0.618 mM in data set [3] (M1=Ho). The “[mM] Nd” value came to 0.606 mM in data set [3] (M1=La); 0.841 mM in data set [3] (M1=Lu); 0.496 mM in data set [3] (M1=Nd); 0.559 mM in data set [3] (M1=Pr); 0.594 mM in data set [3] (M1=Sc); 0.512 mM in data set [3] (M1=Sm). For the same compound, the “[mM] Nd” value in data set [3] (M1=Tb) was determined as 0.178 mM; in data set [3] (M1=Tm) it was 0.748 mM; in data set [3] (M1=Y), 1.463 mM; in data set [3] (M1=Yb), 0.495 mM.

Take `O=C(O)c1cccc(C(=O)O)n1` [dipicolinic acid]: in data set [2] (additive 20 mM), the “Precipitate concentration [mM] Dy” value is given as 0.36 mM, the “Precipitate concentration [mM] Nd” value is given as 2.66 mM, the “Supernatant concentration [mM] Dy” value came to 4.29 mM and the “Supernatant concentration [mM] Nd” value turned out to be 2.21 mM.
